# In article PMC11881906, “Development of xanthone derivatives as effective broad-spectrum antimicrobials: Disrupting cell wall and inhibiting DNA synthesis” (Science Advances, 2025):
# Tests used:
# [1] = test system: rabbit erythrocytes; assay: Hemolysis assay; type: cell-based; conditions: concentration causing 50% hemolysis of red blood cells; 1 hour, 37°C
# Procedure: The hemolytic activity of antimicrobial agents was investigated as previously described ([70]). Briefly, the rabbit erythrocytes were centrifuged at 2500 rpm for 3 min before being washed twice with sterile phosphate-buffered saline (PBS) (pH 7.4). Subsequently, the erythrocytes were diluted with PBS to a final concentration of 8% (v/v). The DMSO-dissolved compounds were twofold serially diluted in PBS to achieve a final concentration with DMSO less than 0.5%. […] Sterile PBS and 0.2% Triton X-100 were used as negative and positive controls, respectively. After 1 hour of incubation at 37°C, the tested samples were centrifuged at 2500 rpm for 5 min, and aliquots of the supernatant were added to 96-well microplates. The hemoglobin release was determined by measuring the absorbance at 576 nm using a BioTek multimode reader. The percentage of hemolytic activity was calculated using the following formula: Hemolysis rate (%) = [OD576 (compound) − OD576 (PBS)]/[OD576 (Triton X-100) − OD576 (PBS)] × 100. All measurements were repeated three times with duplicates each time.
# [2] = test system: E. coli ATCC 25922; assay: MIC, broth microdilution; type: cell-based, Escherichia coli; conditions: 24-hour incubation, MHB; for MIC90: Escherichia coli, ATCC25922, 24 h, read-out: MIC90 E. coli ATCC 25922
# Procedure: (§1) MIC was determined using the broth microdilution method in accordance with Clinical and Laboratory Standards Institute guidelines. All compounds were dissolved in dimethyl sulfoxide (DMSO; final DMSO concentration of less than 0.5%) and sterile double-distilled water and then diluted with Mueller-Hinton broth (MHB). Each compound’s stock solution was serially twofold diluted, resulting in concentrations ranging from 0.39 to 100 μg/ml, and thereafter added to sterile 96-well plates. All bacterial cell suspensions were adjusted in MHB to attain a starting inoculum of 1 × 10^6 cells/ml. A total of 100 μl volume of the bacterial suspension was then added to each well. Following a 24-hour incubation at 37°C, the optical density at 600 nm (OD600) was confirmed by measuring absorbance at 600 nm with a BioTek microplate reader. […] All measurements were repeated three times with duplicates each time.
# [3] = test system: MRSA N315; assay: MIC, broth microdilution; type: cell-based; conditions: Staphylococcus aureus, 24-hour incubation, MHB, read-out: MIC90 MRSA N315
# Procedure: as §1
# [4] = test system: MRSA NCTC 10442; assay: MIC, broth microdilution; type: cell-based; conditions: Staphylococcus aureus; 24-hour incubation, MHB; read-out: MIC90 MRSA NCTC 10442
# Procedure: as §1
# [5] = CCK-8 cytotoxicity assay; type: cell-based; conditions: mouse, NCTC clone 929 fibroblast cells, 25 μg/ml, read-out: %Viable cells NCTC clone 929 cells
# Procedure: Cytotoxicity of the compound tested was assessed by CCK-8 assays as previously described ([71]). […] Following a 24-hour incubation, 10 μl of CCK-8 reagent was added to each well and incubated for 1 hour. The absorbance at 450 nm was measured by a microplate reader. All measurements were repeated three times with duplicates each time.
# [6] = test system: K. pneumonia ATCC 10031; assay: MIC, broth microdilution; type: cell-based; conditions: Klebsiella pneumoniae, ATCC10031; 24-hour incubation, MHB
# Procedure: as §1
# [7] = test system: S. aureus ATCC 29213; assay: MIC, broth microdilution; type: cell-based; conditions: Staphylococcus aureus, ATCC29213, 24 h, 24-hour incubation, MHB; read-out: MIC90 S. aureus ATCC 29213
# Procedure: as §1
# [8] = test system: A. baumannii ATCC 17978; assay: MIC, broth microdilution; type: cell-based; conditions: Acinetobacter baumannii, ATCC17978; 24-hour incubation, MHB
# Procedure: as §1
# [9] = test system: P. aeruginosa ATCC 9027; assay: MIC, broth microdilution; type: cell-based; conditions: Pseudomonas aeruginosa, ATCC9027; 24-hour incubation, MHB
# Procedure: as §1
# [10] = test system: K. pneumonia ATCC 14581; assay: MIC, broth microdilution; type: cell-based; conditions: Klebsiella pneumoniae, ATCC14581; 24-hour incubation, MHB
# Procedure: as §1
# [11] = test system: A. baumannii R2889; assay: MIC, broth microdilution; type: cell-based; conditions: Acinetobacter baumannii, 24-hour incubation, MHB
# Procedure: as §1
# [12] = test system: Gram-positive bacteria; assay: MIC, summary over Gram-positive strains; type: cell-based; conditions: read-out: MICs against Gram-positive bacteria, three Gram-positive strains
# Procedure: as §1
# [13] = test system: tested strains (Gram-positive and Gram-negative bacteria); assay: MIC, summary over the tested strains; type: cell-based; conditions: Gram-positive and Gram-negative strains; read-out: MICs against the tested strains
# Procedure: as §1
MIC90 E. coli ATCC 25922 [2],MIC90 [2],MIC90 [3],MIC90 [4],MIC90 [7],Structure (SMILES),HC50 [1],"viability at 24 h, 25 μg/ml [5]",MIC90 [6],MIC90 [8],MIC90 [9],MIC90 [10],MIC90 [11],MIC [12],MIC [13]
>100 µg/mL,> 100 µg/mL,3.12 µg/mL,3.12 µg/mL,–,CCN(CC)CCCCCCCCCCCCOc1ccc2c(=O)c3c(OCC=C(C)C)cc(OCCCCCCCCCCCCN(CC)CC)cc3oc2c1 [XT41],>200 µg/mL,–,–,–,–,–,–,–,–
–,> 50 µg/mL,0.78 µg/mL,1.56 µg/mL,0.39 µg/mL,CCN(CC)CCCCCCCCOc1ccc2c(=O)c3c(OCC=C(C)C)cc(OCCCCCCCCN(CC)CC)cc3oc2c1 [XT38],>200 µg/mL,–,–,–,–,–,–,–,–
–,12.5 µg/mL,1.56 µg/mL,1.56 µg/mL,1.56 µg/mL,CNCCCCCCOc1ccc2c(=O)c3c(OCC=C(C)C)cc(OCCCCCCNC)cc3oc2c1 [XT34],>200 µg/mL,–,–,–,–,–,–,–,–
–,100 µg/mL,6.25 µg/mL,3.12 µg/mL,3.12 µg/mL,CCN(CC)CCCCOc1ccc2c(=O)c3c(OCC=C(C)C)cc(OCCCCN(CC)CC)cc3oc2c1 [XT32],>200 µg/mL,–,–,–,–,–,–,–,–
>100 µg/mL,> 100 µg/mL,12.5 µg/mL,6.25 µg/mL,25 µg/mL,CNCCCCCCCCCCCCOc1ccc2c(=O)c3c(OCC=C(C)C)cc(OCCCCCCCCCCCCNC)cc3oc2c1 [XT40],>200 µg/mL,–,–,–,–,–,–,–,–
–,50 µg/mL,3.12 µg/mL,3.12 µg/mL,1.56 µg/mL,CCN(CC)CCCCCCOc1ccc2c(=O)c3c(OCC=C(C)C)cc(OCCCCCCN(CC)CC)cc3oc2c1 [XT35],>200 µg/mL,–,–,–,–,–,–,–,–
–,> 100 µg/mL,50 µg/mL,50 µg/mL,50 µg/mL,O=c1c2ccc(O)cc2oc2cc(O)cc(O)c12 [XT01],>200 µg/mL,–,> 50 µg/mL,> 50 µg/mL,> 50 µg/mL,> 50 µg/mL,> 50 µg/mL,–,–
–,12.5 µg/mL,6.25 µg/mL,6.25 µg/mL,6.25 µg/mL,CNCCCCOc1ccc2c(=O)c3c(OCC=C(C)C)cc(OCCCCNC)cc3oc2c1 [XT31],>200 µg/mL,–,–,–,–,–,–,–,–

Structure (SMILES),MIC90 E. coli ATCC 25922 [2],MIC90 [2],MIC90 [3],MIC90 [4],MIC90 [7],HC50 [1],"viability at 24 h, 25 μg/ml [5]",MIC90 [6],MIC90 [8],MIC90 [9],MIC90 [10],MIC90 [11],MIC [12],MIC [13]
CC(C)=CCOc1cc(OCCCCNC(=N)N)cc2oc3cc(OCCCCNC(=N)N)ccc3c(=O)c12 [XT43],1.56 µg/mL,1.56 to 12.5 µg/mL,0.195 µg/mL,0.195 µg/mL,0.195 µg/mL,>200 µg/mL,40.3 ± 1.33%,6.25 µg/mL,12.5 µg/mL,12.5 µg/mL,12.5 µg/mL,25 µg/mL,0.098 to 1.56 µg/mL,–
CC(C)=CCOc1cc(OCCCNCCN(CCN)CCN)cc2oc3cc(OCCCNCCN(CCN)CCN)ccc3c(=O)c12 [XT13],–,50 µg/mL,6.25 µg/mL,6.25 µg/mL,6.25 µg/mL,>200 µg/mL,–,–,–,–,–,–,–,6.25 to 50 µg/mL
CCN(CC)CCCOc1ccc2c(=O)c3c(OCC=C(C)C)cc(OCCCN(CC)CC)cc3oc2c1 [XT09],–,50 µg/mL,12.5 µg/mL,6.25 µg/mL,6.25 µg/mL,>200 µg/mL,–,–,–,–,–,–,–,6.25 to 50 µg/mL
CNCCCOc1ccc2c(=O)c3c(OCC=C(C)C)cc(OCCCNC)cc3oc2c1 [XT08],–,25 µg/mL,12.5 µg/mL,12.5 µg/mL,12.5 µg/mL,>200 µg/mL,–,–,–,–,–,–,–,6.25 to 50 µg/mL
